What was measured:
[1] = Systemic exposure after oral administration to rat(s); assay type: in vivo; settings: about 1 mg/kg oral, free base, 10% DMSO and 90% PEG200/water (70:30), preliminary tests
Description: Although the compound of formula (I) or salt thereof may be administered orally, oral administration is not presently thought to be a preferred route of administration.

[2] = Aqueous solubility preliminary screen; assay type: physicochemical; settings: pH 7.4 phosphate buffered saline with about 5% DMSO, aqueous with cosolvent or surfactant or cyclodextrin, free base, pH 7.4 PBS with about 5% DMSO, about room temperature
Description: Aqueous solubility: A preliminary screen aims to estimate roughly the aqueous solubility of compounds by (as an approximate summary): (i) creating a ca. 10 mM solution of the compound in DMSO, (ii) diluting a portion of this DMSO solution by mixing about 19 parts by volume of pH 7.4 aqueous phosphate buffered saline (PBS) buffer with 1 part by volume of the ca. 10 mM DMSO solution, (iii) “filtering” the mixture with the aid of centrifugation, and then (iv) measuring the concentration of the dissolved compound in the “filtrate”.

Structure (SMILES): CCn1ncc2c(NC3CCN(C(N)=O)CC3)c(C(=O)NCc3ccc(C)c(C)c3)cnc21 [compound of formula (I), 4-{[1-(aminocarbonyl)-4-piperidinyl]amino}-N-[(3,4-dimethylphenyl)methyl]-1-ethyl-1H-pyrazolo[3,4-b]pyridine-5-carboxamide]
- systemic exposure after oral administration [1]: low systemic exposure
- solubility kinetic [2]: ~60 µg/mL
